Data published in patent US4857547A, “Novel HMG-CoA reductase inhibitors” (Merck & Co., Inc., priority 1988, dated 1989).

These compounds were tested against T1, HMG-CoA reductase (Rattus norvegicus, UniProt P51639) (assay: intrinsic HMG-CoA reductase inhibition, in vitro protocol (J. Med. Chem., 28, p. 347-358 (1985))). Conditions: compactin (mevastatin) assigned a value of 100; IC50 of test compound compared with that of mevastatin determined simultaneously.
T1 sequence (P51639 1-887): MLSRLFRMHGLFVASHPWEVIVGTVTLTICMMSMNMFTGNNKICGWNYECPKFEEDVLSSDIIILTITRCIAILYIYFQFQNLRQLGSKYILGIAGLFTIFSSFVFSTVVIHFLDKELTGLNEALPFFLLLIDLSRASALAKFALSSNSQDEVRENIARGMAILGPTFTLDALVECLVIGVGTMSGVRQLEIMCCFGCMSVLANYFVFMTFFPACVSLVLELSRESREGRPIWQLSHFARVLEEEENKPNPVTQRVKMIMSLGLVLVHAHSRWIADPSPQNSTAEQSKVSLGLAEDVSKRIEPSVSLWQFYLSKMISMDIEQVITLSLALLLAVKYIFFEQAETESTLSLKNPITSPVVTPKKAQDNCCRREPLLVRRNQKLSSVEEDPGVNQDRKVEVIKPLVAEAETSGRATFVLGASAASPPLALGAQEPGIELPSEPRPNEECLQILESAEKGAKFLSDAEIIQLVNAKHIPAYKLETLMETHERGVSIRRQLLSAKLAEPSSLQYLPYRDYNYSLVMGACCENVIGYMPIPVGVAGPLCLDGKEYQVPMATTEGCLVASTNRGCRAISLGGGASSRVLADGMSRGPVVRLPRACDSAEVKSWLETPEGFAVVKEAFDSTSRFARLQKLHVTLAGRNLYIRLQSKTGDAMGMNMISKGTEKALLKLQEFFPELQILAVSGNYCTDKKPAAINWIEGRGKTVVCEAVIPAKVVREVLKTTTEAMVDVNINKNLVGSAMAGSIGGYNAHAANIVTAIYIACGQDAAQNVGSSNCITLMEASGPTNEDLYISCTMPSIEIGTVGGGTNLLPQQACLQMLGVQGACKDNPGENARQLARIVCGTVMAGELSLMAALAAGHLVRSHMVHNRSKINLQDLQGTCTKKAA
Assay type: biochemical
Protocol: The intrinsic HMG-CoA reductase inhibition activity of the claimed compounds is measured in the in vitro protocol published in J. Med. Chem., 28, p. 347-358 (1985).
For estimation of relative inhibitory potencies, compactin (i.e., mevastatin) was assigned a value of 100 and the IC50 value of the test compound was compared with that of mevastatin (compactin) determined simultaneously in the published in vitro protocol.

Relative Potency	SMILES
75	CCC(C)(C)C(=O)O[C@H]1CC(CO)=CC2=CC[C@H](C)[C@H](CC[C@@H]3C[C@@H](O)CC(=O)O3)[C@H]21 [Example 1, 6(R)-[2-[8(S)-(2,2-dimethylbutyryloxy)-2(S)-methyl-6-hydroxymethyl-1,2,3,7,8,8a(R)-hexahydronaphthyl-1(S)]-ethyl]-4(R)-hydroxy-3,4,5,6-tetrahydro-2H-pyran-2-one]
100	CCC(C)(C)C(=O)O[C@H]1CC(C(=O)O)=CC2=CC[C@H](C)[C@H](CC[C@@H]3C[C@@H](O)CC(=O)O3)[C@H]21 [Example 2, 6(R)-[2-[8(S)-(2,2-dimethylbutyryloxy)-2(S)-methyl-6-carboxy-1,2,3,7,8,8a(R)-hexahydronaphthyl-1(S)]-ethyl]-4(R)-hydroxy-3,4,5,6-tetrahydro-2H-pyran-2-one]
200	CCC(C)(C)C(=O)O[C@H]1CC(COC(=O)Nc2ccccc2)=CC2=CC[C@H](C)[C@H](CC[C@@H]3C[C@@H](O)CC(=O)O3)[C@H]21 [Example 4, 6(R)-[2-[8(S)-(2,2-dimethylbutyryloxy)-2(S)-methyl-6-phenylaminocarbonyloxymethyl-1,2,3,7,8,8a(R)-hexahydronaphthyl-1(S)]-ethyl]-4(R)-hydroxy-3,4,5,6-tetrahydro-2H-pyran-2-one]
